Experimental data: patent US9580430B2, “9H-pyrimido[4,5-B]indoles and related analogs as BET bromodomain inhibitors” (THE REGENTS OF THE UNIVERSITY OF MICHIGAN, priority 2014, dated 2017)

Tests used:
recombinant BRD4 BD1 = target: T1, recombinant BRD4 BD1 (Homo sapiens, UniProt O60885); experiment: Competitive fluorescence-polarization (FP) binding assay, BRD4 BD1; details: competitive FP assay; protein 10 nM, probe […]; read-out: IC50 (nM) BRD4 BD1; note: probe 1.5 nM
T1 construct: for recombinant BRD4 BD1 and BRD4 BD2 proteins
Description: (§1) Fluorescence Polarization (FP) competitive binding studies were carried out using a FAM labeled fluorescent probe (ZBA248 or BRD-1F) to determine binding affinities of representative Compounds of the Disclosure for recombinant BRD4 BD1 and BRD4 BD2 proteins. For example, equilibrium dissociation constants (Kd) values of ZBA248 to these […] proteins were determined from protein saturation experiments by monitoring the total fluorescence polarization of mixtures composed with the fluorescent probe at a fixed concentration and proteins with increasing concentrations up to full saturation. Serial dilutions of testing protein were mixed with ZBA248 to a final volume of 200 μl in the assay buffer. […] Plates were incubated at room temperature for 30 minutes with gentle shaking to assure equilibrium. […] Kd values of ZBA248 were calculated by fitting the sigmoidal dose-dependent FP increases as a function of protein concentrations using Graphpad Prism 6.0 software (Graphpad Software, San Diego, Calif.).
(§2) The IC50 and Ki values of representative Compounds of the Disclosure were determined in a competitive binding experiment as described above. Mixtures of 10 μl of the tested compounds in assay buffer with 40% Ethylene Glycol and 190 μl of preincubated protein/probe complex solution in the assay buffer (100 mM potassium phosphate, pH 6.5, 0.01% Triton X-100) were added into assay plates which were incubated at room temperature for 30 minutes with gentle shaking. Final concentrations of proteins were 10 and 6 nM in assays for BD1 and BD2 of BRD4, respectively. […] FP values were measured as described above. IC50 values were determined by nonlinear regression fitting of the competition curves.

recombinant BRD4 BD2 = target: T2, recombinant BRD4 BD2 (Homo sapiens, UniProt O60885); experiment: Competitive fluorescence-polarization (FP) binding assay, BRD4 BD2; details: competitive FP assay; protein 6 nM, probe […]; read-out: IC50 (nM) BRD4 BD2; note: probe 1.5 nM
T2 construct: for recombinant BRD4 BD1 and BRD4 BD2 proteins
Description: as §1, §2

MOLM-13 = experiment: Cell growth inhibition, MOLM-13 leukemia cells (CellTiter-Glo); type: cell-based; details: Homo sapiens, MOLM-13, 96 h; 4 days; read-out: IC50 (nM) MOLM-13 Cell Line (CellTiter-Glo assay)
Description: Cell growth inhibitory activity of representative Compounds of the Disclosure was determined using CellTiter-Glo® Luminescent Cell Viability Assay. […] Cell viability was determined using the CellTiter-Glo® Luminescent Cell Viability Assay Kit (Promega, Madison, Wis.) according to the manufacture's instruction. Briefly, a volume of CellTiter-Glo® Reagent equal to the volume of cell culture medium was added to each well, and then the plates were incubated at room temperature for 10-20 minutes. The luminescent signal was measured using a Tecan Infinite M1000 multimode microplate reader (Tecan, Morrisville, N.C.). The half maximal inhibitory concentration (IC50) was calculated using the GraphPad Prism 5 software (GraphPad Software, La Jolla, Calif.).

MDA-MB-436 = experiment: Cell growth inhibition, MDA-MB-436 breast cancer cells (WST-8); type: cell-based; details: Homo sapiens, MDA-MB-436, 96 h; 4 days; read-out: IC50 (nM) MDA-MB-436 Cell Line (WST assay)
Description: All the breast cancer cell lines were obtained from the ATCC. Cell viability was determined using the WST-8 (2-(2-methoxy-4-nitrophenyl)-3-(4-nitrophenyl)-5-(2,4-disulfophenyl)-2H-tetrazolium, monosodium salt) based Cell Counting-8 Kit (Dojindo Molecular Technologies, Inc., Rockville, Md.) according to the manufacture's instruction. […] The absorbance was measured at 450 nm using a SPECTRAmax PLUS plate reader (Molecular Devices, Sunnyvale, Calif.). The IC50 was calculated using the GraphPad Prism 5 software.

Row | IC50 (recombinant BRD4 BD1) | IC50 (recombinant BRD4 BD2) | IC50 (MOLM-13) | IC50 (MDA-MB-436) | SMILES
1 | 365 nM | 198 nM | 56.3 nM | 142 nM | COc1cc2c(cc1-c1c(C)noc1C)[nH]c1nc(C)nc(Nc3cc(C)nn3-c3cccc(Cl)c3)c12 [Cpd. No. 7, N-(1-(3-Chlorophenyl)-3-methyl-1H-pyrazol-5-yl)-7-(3,5-dimethylisoxazol-4-yl)-6-methoxy-2-methyl-9H-pyrimido[4,5-b]indol-4-amine]
2 | 9.7 nM | 8 nM | 10.3 nM | 55.1 nM | COc1cc2c(cc1-c1c(C)noc1C)[nH]c1nc(C)nc(Nc3cc(C)nn3C)c12 [Cpd. No. 8, N-(1,3-Dimethyl-1H-pyrazol-5-yl)-7-(3,5-dimethylisoxazol-4-yl)-6-methoxy-2-methyl-9H-pyrimido[4,5-b]indol-4-amine]
3 | 6.1 nM | 6.3 nM | 5 nM | 29.6 nM | COc1cc2c(cc1-c1c(C)noc1C)[nH]c1nc(C)nc(Nc3cc(C)nn3C(C)C)c12 [Cpd. No. 9, 7-(3,5-Dimethylisoxazol-4-yl)-N-(1-isopropyl-3-methyl-1H-pyrazol-5-yl)-6-methoxy-2-methyl-9H-pyrimido[4,5-b]indol-4-amine]
4 | 21.5 nM | 43.3 nM | 45.6 nM | 138 nM | COc1cc2c(cc1-c1c(C)noc1C)[nH]c1nc(C)nc(Nc3nn(C)c4ncccc34)c12 [Cpd. No. 10, 7-(3,5-Dimethylisoxazol-4-yl)-6-methoxy-2-methyl-N-(1-methyl-1H-pyrazolo[3,4-b]pyridin-3-yl)-9H-pyrimido[4,5-b]indol-4-amine]
5 | 240 nM | 235 nM | 23.9 nM | 398 nM | COc1cc2c(cc1-c1c(C)noc1C)[nH]c1nc(C)nc(Nc3nn(C)c4ccncc34)c12 [Cpd. No. 11, 7-(3,5-dimethylisoxazol-4-yl)-6-methoxy-2-methyl-N-(1-methyl-1H-pyrazolo[4,3-c]pyridin-3-yl)-9H-pyrimido[4,5-b]indol-4-amine]
6 | > 1000 nM | > 1000 nM | 108 nM | 1080 nM | COc1cc2c(cc1-c1c(C)noc1C)[nH]c1nc(C)nc(Nc3nn(C)c4ccc(Cl)cc34)c12 [Cpd. No. 13, N-(5-Chloro-1-methyl-1H-indazol-3-yl)-7-(3,5-dimethylisoxazol-4-yl)-6-methoxy-2-methyl-9H-pyrimido[4,5-b]indol-4-amine]
7 | 14.6 nM | 22.6 nM | 23.7 nM | 83.3 nM | COc1cc2c(cc1-c1c(C)noc1C)[nH]c1nc(C)nc(Nc3cnn4ccccc34)c12 [Cpd. No. 14, 7-(3,5-Dimethylisoxazol-4-yl)-6-methoxy-2-methyl-N-(pyrazolo[1,5-a]pyridin-3-yl)-9H-pyrimido[4,5-b]indol-4-amine]
8 | 10.1 nM | 18.8 nM | 5.1 nM | 33.7 nM | COc1cc2c(cc1-c1c(C)noc1C)[nH]c1nc(C)nc(Nc3c(C)nn4ccccc34)c12 [Cpd. No. 15, 7-(3,5-Dimethylisoxazol-4-yl)-6-methoxy-2-methyl-N-(2-methylpyrazolo[1,5-a]pyridin-3-yl)-9H-pyrimido[4,5-b]indol-4-amine]
9 | 248 nM | 194 nM | 14.6 nM | 529 nM | COc1cc2c(cc1-c1c(C)noc1C)[nH]c1nc(C)nc(Nc3cnn4cccnc34)c12 [Cpd. No. 16, 7-(3,5-Dimethylisoxazol-4-yl)-6-methoxy-2-methyl-N-(pyrazolo[1,5-a]pyrimidin-3-yl)-9H-pyrimido[4,5-b]indol-4-amine]
10 | 16.7 nM | 82.3 nM | 28.4 nM | 51 nM | COc1cc2c(cc1-c1c(C)noc1C)[nH]c1ncnc(Nc3nn(C)c4ccccc34)c12 [Cpd. No. 17, 7-(3,5-Dimethylisoxazol-4-yl)-6-methoxy-N-(1-methyl-1H-indazol-3-yl)-9H-pyrimido[4,5-b]indol-4-amine]
11 | 211 nM | 1160 nM | 86.2 nM | 141 nM | COc1cc2c(cc1-c1c(C)noc1C)[nH]c1nc(C(C)C)nc(Nc3nn(C)c4ccccc34)c12 [Cpd. No. 18, 7-(3,5-Dimethylisoxazol-4-yl)-2-isopropyl-6-methoxy-N-(1-methyl-1H-indazol-3-yl)-9H-pyrimido[4,5-b]indol-4-amine]
12 | 200 nM | 613 nM | 109 nM | 323 nM | COc1ccc2c(Nc3nc(C)nc4[nH]c5cc(-c6c(C)noc6C)c(OC)cc5c34)nn(C)c2c1 [Cpd. No. 19, 7-(3,5-Dimethylisoxazol-4-yl)-6-methoxy-N-(6-methoxy-1-methyl-1H-indazol-3-yl)-2-methyl-9H-pyrimido[4,5-b]indol-4-amine]
13 | 13.3 nM | 34.6 nM | 21.9 nM | 52.7 nM | COc1cc2c(cc1-c1c(C)noc1C)[nH]c1nc(C)nc(Nc3cc(C(F)(F)F)nn3C)c12 [Cpd. No. 21, 7-(3,5-Dimethylisoxazol-4-yl)-6-methoxy-2-methyl-N-(1-methyl-3-(trifluoromethyl)-1H-pyrazol-5-yl)-9H-pyrimido[4,5-b]indol-4-amine]
14 | 49.1 nM | 40.6 nM | 77.5 nM | 84.8 nM | COc1cc2c(cc1-c1c(C)noc1C)[nH]c1nc(C)nc(Nc3cc(C(F)(F)F)nn3C(C)C)c12 [Cpd. No. 22, 7-(3,5-Dimethylisoxazol-4-yl)-N-(1-isopropyl-3-(trifluoromethyl)-1H-pyrazol-5-yl)-6-methoxy-2-methyl-9H-pyrimido[4,5-b]indol-4-amine]
15 | > 1000 nM | > 1000 nM | 82.1 nM | 1110 nM | COc1cc2c(cc1-c1c(C)noc1C)[nH]c1nc(C)nc(Nc3ncnn3C(C)C)c12 [Cpd. No. 29, 7-(3,5-dimethylisoxazol-4-yl)-N-(1-isopropyl-1H-1,2,4-triazol-5-yl)-6-methoxy-2-methyl-9H-pyrimido[4,5-b]indol-4-amine]
16 | 26.5 nM | 39.4 nM | 40.9 nM | 155 nM | COc1cc2c(cc1-c1c(C)noc1C)[nH]c1nc(C)nc(Nc3[nH]ncc3C(C)C)c12 [Cpd. No. 32, 7-(3,5-dimethylisoxazol-4-yl)-N-(4-isopropyl-1H-pyrazol-5-yl)-6-methoxy-2-methyl-9H-pyrimido[4,5-b]indol-4-amine]
17 | 24.5 nM | 21.5 nM | 2420 nM | 303 nM | COc1cc2c(cc1-c1c(C)noc1C)[nH]c1nc(C)nc(Nc3scnc3C(C)(C)C)c12 [Cpd. No. 33, 4-(tert-butyl)-N-(7-(3,5-dimethylisoxazol-4-yl)-6-methoxy-2-methyl-9H-pyrimido[4,5-b]indol-4-yl)thiazol-5-amine]
18 | 30.2 nM | 28.7 nM | 32.7 nM | 97.6 nM | COc1cc2c(cc1-c1c(C)noc1C)[nH]c1nc(C)nc(Nc3cn(C)nc3C)c12 [Cpd. No. 34, N-(1,3-dimethyl-1H-pyrazol-4-yl)-7-(3,5-dimethylisoxazol-4-yl)-6-methoxy-2-methyl-9H-pyrimido[4,5-b]indol-4-amine]
19 | 20.4 nM | 42.9 nM | 38.9 nM | 88.9 nM | COc1cc2c(cc1-c1c(C)noc1C)[nH]c1nc(C)nc(Nc3c(C)nn(C)c3C)c12 [Cpd. No. 35, 7-(3,5-dimethylisoxazol-4-yl)-6-methoxy-2-methyl-N-(1,3,5-trimethyl-1H-pyrazol-4-yl)-9H-pyrimido[4,5-b]indol-4-amine]
